# B1: Folylpolyglutamate synthase, mitochondrial (Homo sapiens), Q05932 (protein)
# chain: MSRARSHLRAALFLAAASARGITTQVAARRGLSAWPVPQEPSMEYQDAVRMLNTLQTNAGYLEQVKRQRGDPQTQLEAMELYLARSGLQVEDLDRLNIIHVTGTKGKGSTCAFTECILRSYGLKTGFFSSPHLVQVRERIRINGQPISPELFTKYFWRLYHRLEETKDGSCVSMPPYFRFLTLMAFHVFLQEKVDLAVVEVGIGGAYDCTNIIRKPVVCGVSSLGIDHTSLLGDTVEKIAWQKGGIFKQGVPAFTVLQPEGPLAVLRDRAQQISCPLYLCPMLEALEEGGPPLTLGLEGEHQRSNAALALQLAHCWLQRQDRHGAGEPKASRPGLLWQLPLAPVFQPTSHMRLGLRNTEWPGRTQVLRRGPLTWYLDGAHTASSAQACVRWFRQALQGRERPSGGPEVRVLLFNATGDRDPAALLKLLQPCQFDYAVFCPNLTEVSSTGNADQQNFTVTLDQVLLRCLEHQQHWNHLDEEQASPDLWSAPSPEPGGSASLLLAPHPPHTCSASSLVFSCISHALQWISQGRDPIFQPPSPPKGLLTHPVAHSGASILREAAAIHVLVTGSLHLVGGVLKLLEPALSQ
# Columns and labels:
# [1] = test system: ACHN; assay: Cytotoxicity evaluation against ACHN renal cancer cells; assay type: functional; conditions: Homo sapiens
# [2] = test system: A549; assay: Cytotoxicity evaluation against A549/ATCC non-small-cell lung cancer cells; assay type: functional; conditions: Homo sapiens
# [3] = test system: HCT-15; assay: Cytotoxicity evaluation against HCT-15 colon cancer cells; assay type: functional; conditions: Homo sapiens
# [4] = test system: HL-60; assay: Cytotoxicity evaluation against HL-60 Leukemia cells; assay type: functional; conditions: Homo sapiens
# [5] = test system: HT-29; assay: Cytotoxicity evaluation against HT-29 colon cancer cells; assay type: functional; conditions: Homo sapiens
# [6] = test system: K562; assay: Cytotoxicity evaluation against K-562 Leukemia cells; assay type: functional; conditions: Homo sapiens
# [7] = test system: MDA-N; assay: Cytotoxicity evaluation against […] breast cancer cells; assay type: functional; conditions: Homo sapiens
# [8] = test system: LOX IMVI; assay: Cytotoxicity evaluation against LOX IMVI melanoma cells; assay type: functional; conditions: Homo sapiens
# [9] = test system: MDA-MB-435; assay: Cytotoxicity evaluation against MDA-MB-435 breast cancer cells; assay type: functional; conditions: Homo sapiens
# [10] = test system: MCF7; assay: Cytotoxicity evaluation against MCF-7 breast cancer cells; assay type: functional; conditions: Homo sapiens
# [11] = test system: NCI-H226; assay: Cytotoxicity evaluation against NCI-H226 non-small-cell lung cancer cells; assay type: functional; conditions: Homo sapiens
# [12] = test system: NCI-H460; assay: Cytotoxicity evaluation against NCI-H460 non-small-cell lung cancer cells; assay type: functional; conditions: Homo sapiens
# [13] = test system: OVCAR-4; assay: Cytotoxicity evaluation against OVCAR-4 cells; assay type: functional; conditions: Homo sapiens
# [14] = test system: R2-CCRF-CEM; assay: Growth inhibition of MTX-resistant subline R2-CCRF-CEM Human Leukemia Cell was determined; assay type: functional, cell-based
# [15] = test system: R30dm-CCRF-CEM; assay: Growth inhibition of MTX-resistant subline R30dm-CCRF-CEM Human Leukemia Cell was determined; assay type: functional, cell-based
# [16] = test system: R1-CCRF-CEM; assay: Growth inhibition of MTX-resistant subline R1-CCRF-CEM Human Leukemia Cell was determined; assay type: functional, cell-based
# [17] = test system: SW-620; assay: Cytotoxicity evaluation against SW-620 colon cancer cells; assay type: functional; conditions: Homo sapiens
# [18] = test system: SN12C; assay: Cytotoxicity evaluation against SN12C renal cancer cells; assay type: functional; conditions: Homo sapiens
# [19] = test system: SF-539; assay: Cytotoxicity evaluation against SF-539 CNS cancer cells; assay type: functional; conditions: Homo sapiens
# [20] = target: Thymidylate synthase (Homo sapiens, UniProt P04818); assay: Compound was evaluated as inhibitor of human thymidylate synthase
# [21] = target: Thymidylate synthase (Escherichia coli, UniProt C3SWJ7); assay: Compound was evaluated as inhibitor of Escherichia coli thymidylate synthase
# [22] = test system: UACC-62; assay: Cytotoxicity evaluation against UACC-62 melanoma cells; assay type: functional; conditions: Homo sapiens
# [23] = test system: UACC-257; assay: Cytotoxicity evaluation against UACC-257 melanoma cells; assay type: functional; conditions: Homo sapiens
# [24] = test system: CCRF-CEM; assay: Growth inhibition of CCRF-CEM Human Leukemia Cell was determined; assay type: functional, cell-based
# [25] = test system: MOLT-4; assay: Cytotoxicity evaluation against MOLT-4 Leukemia cells; assay type: functional; conditions: Homo sapiens
# [26] = target: Dihydrofolate reductase (Homo sapiens) (UniProt P00374); assay: Compound was evaluated as inhibitor of human Dihydrofolate reductase; conditions: concentration not given here
# [27] = target: Thymidylate synthase (Lactobacillus casei, UniProt P00469); assay: Compound was evaluated as inhibitor of Lactobacillus casei thymidylate synthase; design: species or system Lacticaseibacillus casei
# [28] = target: Dihydrofolate reductase (Homo sapiens, UniProt P00374)
# [29] = substrate: CCc1[nH]c(N)nc2nc(C)c(CCc3ccc(C(=O)N[C@@H](CCC(=O)O)C(=O)O)cc3)c1-2; assay: (§1) Activity of compound calculated as Km was tested as substrate for human Folyl-polyglutamate synthase
# [30] = substrate: CCc1[nH]c(N)nc2ncc(CCc3ccc(C(=O)N[C@@H](CCC(=O)O)C(=O)O)cc3)c1-2; assay: as §1
# [31] = substrate: CCc1[nH]c(N)nc2nc(C)c(CCc3ccc(C(=O)N[C@@H](CCC(=O)O)C(=O)O)cc3)c1-2; assay: (§2) Activity of compound calculated as maximum activity of substrate for human Folyl-polyglutamate synthase relative to the maximum activity for aminopterin
# [32] = substrate: CCc1[nH]c(N)nc2ncc(CCc3ccc(C(=O)N[C@@H](CCC(=O)O)C(=O)O)cc3)c1-2; assay: as §2
# [33] = substrate: Cc1nc(N)nc2[nH]cc(CCc3ccc(C(=O)N[C@@H](CCC(=O)O)C(=O)O)cc3)c12; assay: as §2
# [34] = substrate: Nc1nc(N)c2nc(CNc3ccc(C(=O)N[C@@H](CCC(=O)O)C(=O)O)cc3)cnc2n1; assay: as §2
# Thymidylate synthase (Homo sapiens, UniProt P04818), sequence (P04818 whole entry): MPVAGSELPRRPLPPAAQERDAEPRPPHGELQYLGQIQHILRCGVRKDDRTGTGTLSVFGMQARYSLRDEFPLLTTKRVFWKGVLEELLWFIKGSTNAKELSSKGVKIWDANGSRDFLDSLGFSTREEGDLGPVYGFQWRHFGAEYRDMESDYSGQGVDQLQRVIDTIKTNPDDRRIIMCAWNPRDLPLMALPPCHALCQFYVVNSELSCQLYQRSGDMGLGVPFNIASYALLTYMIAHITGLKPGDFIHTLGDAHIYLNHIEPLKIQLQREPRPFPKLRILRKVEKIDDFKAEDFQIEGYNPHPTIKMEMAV
# Dihydrofolate reductase, sequence (P00374 whole entry): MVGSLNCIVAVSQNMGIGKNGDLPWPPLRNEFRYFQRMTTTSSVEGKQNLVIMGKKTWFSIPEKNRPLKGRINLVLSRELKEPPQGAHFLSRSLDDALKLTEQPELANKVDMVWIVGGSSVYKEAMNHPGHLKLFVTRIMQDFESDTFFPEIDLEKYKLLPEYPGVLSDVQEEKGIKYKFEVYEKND
# Dihydrofolate reductase (Homo sapiens), sequence (P00374 whole entry): as above
# Thymidylate synthase (Escherichia coli, UniProt C3SWJ7), sequence (C3SWJ7 whole entry): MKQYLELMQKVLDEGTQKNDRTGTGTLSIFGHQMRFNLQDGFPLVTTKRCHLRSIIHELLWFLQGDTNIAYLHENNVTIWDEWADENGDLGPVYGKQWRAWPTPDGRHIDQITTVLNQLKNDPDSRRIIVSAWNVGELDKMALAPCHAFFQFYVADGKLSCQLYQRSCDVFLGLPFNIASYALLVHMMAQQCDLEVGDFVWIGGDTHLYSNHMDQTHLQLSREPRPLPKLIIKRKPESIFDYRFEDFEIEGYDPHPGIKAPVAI
# Thymidylate synthase (Lactobacillus casei, UniProt P00469), sequence (P00469 whole entry): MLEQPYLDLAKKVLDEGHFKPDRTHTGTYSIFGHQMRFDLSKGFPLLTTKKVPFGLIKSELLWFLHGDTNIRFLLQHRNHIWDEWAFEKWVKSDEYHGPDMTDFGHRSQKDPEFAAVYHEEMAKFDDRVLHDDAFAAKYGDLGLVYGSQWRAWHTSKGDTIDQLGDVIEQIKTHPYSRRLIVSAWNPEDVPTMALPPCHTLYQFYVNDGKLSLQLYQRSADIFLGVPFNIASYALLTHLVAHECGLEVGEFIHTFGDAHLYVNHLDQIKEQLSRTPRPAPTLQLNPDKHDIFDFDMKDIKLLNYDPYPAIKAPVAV
molecule,measurement,setting,value
CCc1nc(N)nc2[nH]cc(CCc3ccc(C(=O)N[C@@H](CCC(=O)O)C(=O)O)cc3)c12,GI50,[1],169 nM
same,GI50,[2],< 10 nM
same,GI50,[3],< 10 nM
same,GI50,[4],< 10 nM
same,GI50,[5],< 10 nM
same,GI50,[6],< 10 nM
same,GI50,[7],< 10 nM
same,GI50,[8],< 10 nM
same,GI50,[9],< 10 nM
same,GI50,[10],< 10 nM
same,GI50,[11],< 10 nM
same,GI50,[12],< 10 nM
same,GI50,[13],< 10 nM
same,EC50,[14],750 nM
same,EC50,[15],18.5 nM
same,EC50,[16],695 nM
same,GI50,[17],< 10 nM
same,GI50,[18],< 10 nM
same,GI50,[19],< 10 nM
same,IC50,[20],80000 nM
same,IC50,[21],80000 nM
same,GI50,[22],< 10 nM
same,GI50,[23],< 10 nM
same,EC50,[24],15 nM
same,GI50,[25],> 100000 nM
CCc1[nH]c(N)nc2nc(C)c(CCc3ccc(C(=O)N[C@@H](CCC(=O)O)C(=O)O)cc3)c1-2,GI50,[1],> 100000 nM
same,GI50,[2],> 100000 nM
same,inhibition,[26],14%
same,GI50,[3],> 100000 nM
same,GI50,[4],< 10 nM
same,GI50,[5],> 100000 nM
same,GI50,[6],143 nM
same,GI50,[7],> 100000 nM
same,GI50,[8],98600 nM
same,GI50,[9],> 100000 nM
same,GI50,[10],> 100000 nM
same,GI50,[11],> 100000 nM
same,GI50,[12],> 100000 nM
same,GI50,[13],> 100000 nM
same,EC50,[14],> 10000 nM
same,EC50,[15],> 20000 nM
same,EC50,[16],> 20000 nM
same,GI50,[17],> 100000 nM
same,GI50,[18],> 100000 nM
same,GI50,[19],> 100000 nM
same,IC50,[20],9000 nM
same,GI50,[22],> 100000 nM
same,GI50,[23],> 100000 nM
same,IC50,[27],> 100000 nM
same,EC50,[24],> 10000 nM
same,GI50,[25],100 nM
CN(Cc1cnc2nc(N)nc(N)c2n1)c1ccc(C(=O)N[C@@H](CCC(=O)O)C(=O)O)cc1 [METHOTREXATE],EC50,[14],2630 nM
same,EC50,[15],12.8 nM
same,EC50,[16],985 nM
Cc1nc(N)nc2[nH]cc(CCc3ccc(C(=O)N[C@@H](CCC(=O)O)C(=O)O)cc3)c12,GI50,[3],> 100000 nM
same,GI50,[4],< 10 nM
same,GI50,[5],> 100000 nM
same,GI50,[6],14700 nM
same,GI50,[7],> 100000 nM
same,GI50,[8],11500 nM
same,GI50,[9],> 100000 nM
same,GI50,[13],> 100000 nM
same,EC50,[14],575 nM
same,EC50,[15],18.5 nM
same,EC50,[16],158 nM
same,GI50,[17],> 100000 nM
same,GI50,[18],> 100000 nM
same,GI50,[22],> 100000 nM
same,GI50,[23],> 100000 nM
same,IC50,[28],1200 nM
B1,Km,[29],96 µM
same,Km,[30],< 2 µM
same,relative Vmax,[31],0.1
same,relative Vmax,[32],0.23
same,relative Vmax,[33],0.17
same,Vmax,[34],1 µM
